Where “and” joins values, the source holds several entries; their conditions need not be identical. Equal values may be shown once. Where a name gives a salt, the structure may show the parent alone.
What was measured:
[1] = tested on: Staphylococcus aureus MW2 delta-mecA (mecA-); assay: IC50 (growth, competition assay); conditions: cefoxitin: subinhibitory
Procedure, shortened: (§1)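 Two fluorescent S. aureus MW2 strains, one carrying and one lacking the resistance gene, were pre-induced, mixed 1:1 and grown unshaken in LB in 1536-well plates for 20 h at 37 °C and 90% humidity with a subinhibitory drug dose set each day. Compounds were tested on five- or nine-point 2-fold gradients in two dye-swapped replicates. DsRed (540/590) and GFP (485/520) signals were scaled per plate between the medians of single-strain controls, and No Treatment was then set to 0.5. For each strain, IC50 was taken as the dose that halved the No Treatment signal, or else the maximal signal.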

[2] = tested on: Staphylococcus aureus MW2 (mecA+); assay: IC50 (growth, competition assay); conditions: cefoxitin: subinhibitory
Procedure, shortened: as §1

Row | Compound | IC50 ([1]; fluorescent label: DsRed) | IC50 ([1]; fluorescent label: GFP) | IC50 ([2]; fluorescent label: DsRed) | IC50 ([2]; fluorescent label: GFP)
1 | CC/C(=C(\c1ccccc1)c1ccc(OCCN(C)C)cc1)c1ccccc1 [Tamoxifen] | 12.2 µM | < 9.85 µM | 14.8 µM | 14.9 µM
2 | Cc1ccc(S(=O)(=O)C=CC#N)cc1 [Bay 11-7082] | < 9.85 µM | < 9.85 µM | < 9.85 µM | < 9.85 µM
3 | NC(=O)N/N=C/c1ccc([N+](=O)[O-])o1 [ACTIN-N] | 10.5 µM | < 9.85 µM | 16.2 µM | 15 µM
4 | C=CC(=O)Nc1cccc(Sc2nc(Nc3ccc(N4CCN(C)CC4)cc3)ncc2Cl)c1 [WZ8040] | 2.02 µM | 2.67 µM | 17.1 µM | 28.9 µM
5 | CO[C@H]1/C=C/O[C@@]2(C)Oc3c(C)c(O)c4c(O)c(c5c(nc6cc(C)ccn65)c4c3C2=O)NC(=O)/C(C)=C\C=C\[C@H](C)[C@H](O)[C@@H](C)[C@@H](O)[C@@H](C)[C@H](OC(C)=O)[C@@H]1C [XIFAXAN] | < 9.85 µM | < 9.85 µM | < 9.85 µM | < 9.85 µM
6 | CC(=O)OCC1=C(C(=O)O)N2C(=O)[C@@H](NC(=O)Cc3cccs3)[C@H]2SC1 [KEFLIN] | < 9.85 µM | < 9.85 µM | < 9.85 µM | < 9.85 µM
7 | N=C(N)c1ccc(OCCCCCOc2ccc(C(=N)N)cc2)cc1 [NEBUPENT] | 14.5 µM | 13.7 µM | 16.2 µM | 23.6 µM
8 | O=C(O)c1cn(-c2ccc(F)cc2)c2cc(N3CCNCC3)c(F)cc2c1=O [SARAFLOX] | < 9.85 µM | < 9.85 µM | < 9.85 µM | < 9.85 µM
9 | CC(C)(c1ccc(O)cc1)c1ccc(O)cc1 [BISPHENOL A] | < 9.85 µM | < 9.85 µM | 42.4 µM | 64.7 µM
10 | CC[C@@]1([C@H]2O[C@H]([C@H]3O[C@@](O)(CO)[C@H](C)C[C@@H]3C)C[C@H]2C)CC[C@H]([C@@]2(C)CC[C@]3(C[C@H](O)[C@@H](C)[C@@H]([C@H](C)[C@H](OC)[C@@H](C)C(=O)O)O3)O2)O1 [RUMENSIN] | < 9.85 µM | 12.5 µM | < 9.85 µM | < 9.85 µM
11 | N[C@@H](C(=O)N[C@@H]1C(=O)N2C(C(=O)O)=C(Cl)CS[C@H]12)c1ccccc1 [CECLOR] | < 9.85 µM | < 9.85 µM | 87.9 µM | 87.8 µM
12 | CO[C@@]12[C@H](COC(N)=O)C3=C(C(=O)C(C)=C(N)C3=O)N1C[C@@H]1N[C@@H]12 [MUTAMYCIN] | < 9.85 µM | < 9.85 µM | < 9.85 µM | < 9.85 µM
13 | CC(=O)Oc1ccc(Cl)c2cccnc12 [SILITAL] | 15.6 µM | < 9.85 µM | 17.2 µM | 29.8 µM
14 | CCn1cc(C(=O)O)c(=O)c2cc(F)c(N3CCNCC3)nc21 [PENETREX] | < 9.85 µM | < 9.85 µM | < 9.85 µM | < 9.85 µM
15 | C[C@@H](Oc1cc(-c2cnn(C3CCNCC3)c2)cnc1N)c1c(Cl)ccc(F)c1Cl | 20.9 µM | 17 µM | 101 µM | 108 µM
16 | C[C@H]1c2cccc(O)c2C(=O)C2=C(O)[C@]3(O)C(=O)C(C(N)=O)=C(O)[C@@H](N(C)C)[C@@H]3[C@@H](O)[C@@H]21 [Doxycycline hydrochloride] | < 9.85 µM | < 9.85 µM | < 9.85 µM | < 9.85 µM
17 | CC1CCc2c(N3CCC(O)CC3)c(F)cc3c(=O)c(C(=O)O)cn1c23 (stereo not given) [ACUATIM] | < 9.85 µM | < 9.85 µM | < 9.85 µM | < 9.85 µM
18 | CC(C)c1nc(CN(C)C(=O)N[C@@H](CCN2CCOCC2)C(=O)N[C@H](CC[C@H](Cc2ccccc2)NC(=O)OCc2cncs2)Cc2ccccc2)cs1 [Cobicistat (GS-9350)] | 29.4 µM | 27.6 µM | 109 µM | 107 µM
19 | O=[N+]([O-])c1ccc2c(c1)S(=O)(=O)C=C2 [Stattic] | 25.7 µM and 16.6 µM | 13.6 µM and < 9.85 µM | 35.8 µM and 35.3 µM | 35.4 µM and 56.2 µM
20 | CC(C)(O)CC(=O)NCCn1ccc2ncnc(Nc3ccc(Oc4cccc(C(F)(F)F)c4)c(Cl)c3)c21 [TAK-285] | < 9.85 µM | < 9.85 µM | 26.6 µM | 28.3 µM
21 | CCC(C)(C)C(=O)O[C@H]1C[C@@H](C)C=C2C=C[C@H](C)[C@H](CC[C@@H]3C[C@@H](O)CC(=O)O3)[C@H]21 [ZOCOR] | 47.8 µM | 57.6 µM | 129 µM | 115 µM
22 | CO/N=C1\CN(c2nc3c(cc2F)c(=O)c(C(=O)O)cn3C2CC2)CC1CN (stereo not given) [FACTIVE] | < 9.85 µM | < 9.85 µM | < 9.85 µM | < 9.85 µM
23 | COC(=O)Nc1ccc(-c2nc(N3CCOCC3)c3cnn(C4CCN(Cc5cccnc5)CC4)c3n2)cc1 [WYE-687] | 15.1 µM | < 9.85 µM | 49.6 µM | 74.8 µM
24 | CN(C)[C@@H]1C(O)=C(C(N)=O)C(=O)[C@@]2(O)C(O)=C3C(=O)c4c(O)ccc(Cl)c4[C@@](C)(O)[C@H]3C[C@@H]12 [AUREOMYCIN] | < 9.85 µM | < 9.85 µM | < 9.85 µM | < 9.85 µM
25 | CC[C@@]1([C@@H]2O[C@@H]([C@H]3O[C@@](O)(CO)[C@H](C)C[C@@H]3C)C[C@@H]2C)CC[C@H]([C@]2(C)CC[C@]3(C[C@H](O)[C@@H](C)[C@@H]([C@@H](C)[C@@H](OC)[C@H](C)C(=O)O)O3)O2)O1 [Monensin sodium salt (Coban)] | 3.16 µM and < 9.85 µM | < 0.498 µM | 2.46 µM and < 9.85 µM | 8.62 µM and 13.9 µM
26 | CO[C@H]1C[C@H](O[C@H]2[C@H](C)[C@@H](O[C@@H]3O[C@H](C)C[C@H](N(C)C)[C@H]3OC(C)=O)[C@@H](C)C[C@@]3(CO3)C(=O)[C@H](C)[C@@H](OC(C)=O)[C@@H](C)[C@@H](C)OC(=O)[C@@H]2C)O[C@@H](C)[C@@H]1OC(C)=O [EVRAMYCIN] | < 9.85 µM | < 9.85 µM | 33.7 µM | 27.8 µM
27 | O=c1[nH]nc(Sc2ncc([N+](=O)[O-])s2)n1-c1ccc2c(c1)OCCO2 [BI 78D3] | < 9.85 µM | < 9.85 µM | < 9.85 µM | 11.9 µM
28 | CCCCCCCCOc1ccccc1C(=O)Nc1ccc(C(=O)OCC[N+](C)(CC)CC)cc1 [Otilonium Bromide] | < 9.85 µM | < 9.85 µM | < 9.85 µM | < 9.85 µM
29 | C[C@H]1c2cccc(O)c2C(=O)C2=C(O)[C@]3(O)C(=O)C(C(N)=O)=C(O)[C@@H](N(C)C)[C@@H]3[C@@H](O)[C@@H]21 [PERIOSTAT] | < 9.85 µM | < 9.85 µM | < 9.85 µM | < 9.85 µM
30 | N[C@@H]1[C@H]2CN(c3nc4c(cc3F)c(=O)c(C(=O)O)cn4-c3ccc(F)cc3F)C[C@@H]12 [Trovafloxacin mesylate] | < 9.85 µM | < 9.85 µM | < 9.85 µM | < 9.85 µM
